According to patent publication US20160151318A1, “USE OF NITRATED LIPIDS FOR TREATMENT OF LIPID DISORDERS AND OBESITY, AND LIPID- AND OBESITY-RELATED CONDITIONS” (THE UNIVERSITY OF UTAH RESEARCH FOUNDATION, priority 2008, published 2016):

What was measured:
Zucker obese rats = assay: Chronic infusion of OA-NO2 or OA in Zucker obese rats (obesity, hyperlipidemia, kidney injury); type: in vivo, rat; settings: 7.5 μg/kg/day via osmotic mini-pump; for reduction of proteinuria (urinary protein excretion): 24-hour urine (FIG. 7); for plasma free fatty acid levels (non-esterified fatty acid): fasted (FIG. 3B); for plasma cholesterol levels: fasted (FIG. 4); for plasma HDL levels: fasted (FIG. 5A); for body weight gain: male 4-mo-old Zucker obese rats, vs. vehicle control (FIG. 1)
Protocol: Male 4-month-old Zucker obese and Zucker diabetic rats were from Charles River Laboratory (Wilmington, Mass.). All animals were housed in an air-conditioned room with a 12-hour light/dark cycle. All procedures and protocols were in accordance with guidelines set by the Laboratory Animal Care Committee at the University of Utah. Two strains of Zucker rats, obese and diabetes (ZDF) (Charles River), were treated with vehicle (ethanol), OA-NO2 at 7.5 μg/kg/d, or OA at 7.5 μg/kg/d via an osmotic mini-pump. Under isoflurane anesthesia, the mini-pump was implanted under the skin of the neck area. Body weight, food intake, and collections of blood and urine samples were determined before and after treatment. Animals were fasted from 6:00 pm to 9:00 am before blood sampling. Blood sampling was conducted by making a small cut (˜2 mm) in the tail using razor blade. 24-hour urine was collected using metabolic cages. Adult Zucker obese rats develop severe obesity and hyperlipidemia but are relatively resistant to diabetes. Therefore, these animals were used for testing the weight-loss and lipid lowering effects of OA-NO2. To determine whether these effects are directly attributable to the nitration of the fatty acid, the parent fatty acid (OA) was used as a control. Starting from 4 mo of age, Zucker obese rats were chronically infused for 2 weeks with vehicle, OA-NO2 (9-nitrooleic acid and 10-nitrooleic acid are purchased from Cayman Chemical, Ann Arbor, MI and used as an 1:1 mixture), or OA each at 7.5 μg/kg/day via an osmotic mini-pump. Parameters including body weight, food intake, the lipid profile, oxidative stress, and urinary protein excretion were determined. Animals were fasted from 6:00 pm to 9:00 am before blood sampling.

Zucker diabetic rats = assay: Chronic infusion of OA-NO2 in Zucker diabetic rats (ZDF strain); type: in vivo, rat; settings: 7.5 μg/kg/d via osmotic mini-pumps, 1 week, fasted
Protocol: Male 4-month-old Zucker obese and Zucker diabetic rats were from Charles River Laboratory (Wilmington, Mass.). All animals were housed in an air-conditioned room with a 12-hour light/dark cycle. All procedures and protocols were in accordance with guidelines set by the Laboratory Animal Care Committee at the University of Utah.
Two strains of Zucker rats, obese and diabetes (ZDF) (Charles River), were treated with vehicle (ethanol), OA-NO2 at 7.5 μg/kg/d, or OA at 7.5 μg/kg/d via an osmotic mini-pump. Under isoflurane anesthesia, the mini-pump was implanted under the skin of the neck area. Body weight, food intake, and collections of blood and urine samples were determined before and after treatment. Animals were fasted from 6:00 pm to 9:00 am before blood sampling. Blood sampling was conducted by making a small cut (˜2 mm) in the tail using razor blade. 24-hour urine was collected using metabolic cages.
To evaluate the efficacy of OA-NO2 for treatment of diabetes, Zucker diabetic rats were used. These animals develop severe hyperglycemia and hyperinsulinemia, the two major parameters of type 2 diabetes.

Q: With `CCCCCCCC/C=C\CCCCCCCC(=O)O` [OA, Oleic acid, reference compound] as the molecule, how does the “reduction of proteinuria (urinary protein excretion)” value (Zucker obese rats; Zucker obese rats, 2 weeks) read?
A: Its value is “no significant effect”.

Q: What about the “plasma free fatty acid levels (non-esterified fatty acid)” value (Zucker obese rats; Zucker obese rats, 2 weeks) of the same molecule?
A: Its value is “lack of an effect”.

Q: What about the plasma cholesterol levels (Zucker obese rats; Zucker obese rats, 2 weeks) of the same molecule?
A: Its plasma cholesterol levels is “unaffected”.

Q: And the “plasma HDL levels” value (Zucker obese rats; Zucker obese rats, 2 weeks)?
A: The value was “ineffective”.

Q: And the body weight gain (Zucker obese rats; 2 weeks)?
A: Its body weight gain is “not different”.

Q: For nitrooleic acid [OA-NO2], which “plasma TBARS (index of systemic oxidative stress), increase in obese vs. lean rats” value (Zucker obese rats; Zucker obese rats, 2 weeks (FIG. 6)) is on record?
A: The value was “significantly attenuated”.

Q: And the “reduction of proteinuria (urinary protein excretion)” value (Zucker obese rats; Zucker obese rats, 2 weeks)?
A: Its value is 50%.

Q: What about the “plasma free fatty acid levels (non-esterified fatty acid)” value (Zucker obese rats; Zucker obese rats, 2 weeks) of the same molecule?
A: Its value is “almost completely normalized”.

Q: What about the plasma cholesterol levels (Zucker obese rats; Zucker obese rats, 2 weeks) of the same molecule?
A: The plasma cholesterol levels was “unaffected”.

Q: And the “plasma HDL levels” value (Zucker obese rats; Zucker obese rats, 2 weeks)?
A: The value was “significantly increased”.

Q: And the plasma triglyceride (Zucker obese rats; Zucker obese rats, 2 weeks, fasted, vs. vehicle control (FIG. 3A))?
A: Its plasma triglyceride is “significant triglyceride-lowering effect”.

Q: And the food intake (Zucker obese rats; Zucker obese rats, 2 weeks, vs. vehicle (FIG. 2))?
A: The food intake was “significantly reduced”.

Q: And the body weight gain (Zucker obese rats; 2 weeks)?
A: The body weight gain was “less than that in the vehicle control”.

Q: What about the “hyperglycemia (plasma glucose)” value (Zucker diabetic rats; vs. Day 0 (FIG. 8A)) of the same molecule?
A: The value was “significantly attenuated”.

Q: And the plasma insulin levels (Zucker diabetic rats; vs. Day 0 (FIG. 8B))?
A: Its plasma insulin levels is “tended to reduce”.
